The target in one series is Protease (Human immunodeficiency virus 1, UniProt Q9YQ12). As to the kind of experiment: (§1) Inhibition of HIV1 3B recombinant protease.
Series [1] has as its target Human immunodeficiency virus type 1 reverse transcriptase (Human immunodeficiency virus 1, UniProt Q72547). As to the kind of experiment: Inhibition of HIV1 3B reverse transcriptase activity.
Series [2] deals with Human immunodeficiency virus 1. In words: Antiviral activity against HIV1 3B in human H9 cells assessed as inhibition of p24 antigen production at 5 uM by ELISA. The class given is functional, organism-based.
The subject of series [3] is Human immunodeficiency virus 1. In words: Antiviral activity against HIV1 3B in human CEM-SS cells assessed as inhibition of viral-induced lytic effect after 7 days by MTT assay. The following applies: Human immunodeficiency virus 1, 3B, 168 h. The class given is functional, organism-based.
The test system of series [4] is Human immunodeficiency virus 1. In words: Antiviral activity against HIV1 3B in human CEM-SS cells assessed as inhibition of viral-induced lytic effect at 25 uM after 7 days by MTT assay. The arrangement: scale not given: the % may be the effect or the level left. The class given is functional.
For series [5], the system named is Human immunodeficiency virus 1. In words: Antiviral activity against HIV1 3B in human H9 cells assessed as inhibition of p24 antigen production by ELISA. The class given is functional, organism-based. The following applies: Human immunodeficiency virus 1, 3B.
In series [6] the target is Human immunodeficiency virus type 1 reverse transcriptase (Human immunodeficiency virus 1) (UniProt Q72547). In words: Inhibition of HIV1 3B reverse transcriptase activity at 1 uM.
The target is the same in series [7]. As to the kind of experiment: Inhibition of HIV1 3B reverse transcriptase activity at 10 uM.
The subject of series [8] is Human immunodeficiency virus 1. In words: Antiviral activity against HIV1 3B in human C8166 co-cultivated with H9 cells assessed as inhibition of cell-cell fusion after 72 hrs. It is filed as functional, organism-based.
In series [9] the test system is Human immunodeficiency virus 1. As to the kind of experiment: Antiviral activity against HIV1 3B in human C8166 co-cultivated with H9 cells assessed as inhibition of cell-virus fusion after 72 hrs. It is filed as functional, organism-based.
Series [10] has as its system Human immunodeficiency virus 1. In words: Antiviral activity against HIV13B in human C8166 co-cultivated with H9 cells assessed as inhibition of viral-induced syncytia formation at 25 uM after 72 hrs. The class given is functional, 3B. The arrangement: scale not given: the % may be the effect or the level left.
The target of series [11] is Protease (Human immunodeficiency virus 1) (UniProt Q9YQ12). Described as §1.
Chain of Protease (Human immunodeficiency virus 1) (Q9YQ12 as listed by the source): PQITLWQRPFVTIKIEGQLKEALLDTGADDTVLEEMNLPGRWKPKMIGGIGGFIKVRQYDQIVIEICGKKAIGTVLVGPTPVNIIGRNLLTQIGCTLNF
For series [12], the system named is Human immunodeficiency virus 1. In words: Antiviral activity against HIV1 3B in human H9 cells assessed as inhibition of p55 gag protein production after 4 days by Western blot analysis. The class given is functional, organism-based.
Series [13] relates to Human immunodeficiency virus 1. As to the kind of experiment: Antiviral activity against HIV1 3B in human H9 cells assessed as inhibition of p41 gag protein production after 4 days by Western blot analysis. It is filed as functional, organism-based. For orientation: A western blot detects proteins with antibodies after separation by electrophoresis.
The nature of series [14]: Cytotoxicity against human CEM-SS cells after 72 hrs by MTT assay. It is filed as cell-based. (In general: Formazan colour is commonly taken as a measure of viable cells.)
For series [15], the system named is Human immunodeficiency virus 1. In words: Antiviral activity against HIV1 3B in human C8166 cells assessed as inhibition of viral-induced syncytia formation after 72 hrs. The following applies: Human immunodeficiency virus 1, 3B, C8166, 72 h. It is filed as functional, organism-based.
The test system of series [16] is Human immunodeficiency virus 1. In words: Antiviral activity against HIV1 3B in human C8166 cells assessed as inhibition of viral-induced syncytia formation at 25 uM after 72 hrs. The class given is functional. The arrangement: scale not given: the % may be the effect or the level left.
In series [17] the test system is Human immunodeficiency virus 1. As to the kind of experiment: Antiviral activity against HIV1 3B in human H9 cells assessed as inhibition of p24 gag protein production after 4 days by Western blot analysis. The class given is functional, organism-based.
The nature of series [18]: Therapeutic index, ratio of CC50 for human CEM-SS cells to IC50 for HIV1 induced lytic effect. It is filed as cell-based. The following applies: read-out: TI.
A further series relates to CEM-SS. In words: Cytotoxicity against human CEM-SS cells up to 500 by MTT assay. The class given is cell-based.
Series [19] deals with Human immunodeficiency virus 1. As to the kind of experiment: Antiviral activity against HIV1 3B in human H9 cells assessed as inhibition of p24 antigen production at 10 uM by ELISA. The following applies: Human immunodeficiency virus 1, 3B. It is filed as functional. In general terms: In an ELISA, binding on a coated surface is turned into a signal by an enzyme label.
The subject of series [20] is Human immunodeficiency virus 1. As to the kind of experiment: Antiviral activity against HIV1 3B in human H9 cells assessed as inhibition of p24 antigen production at 25 uM by ELISA. The class given is functional, organism-based.

The structures appear in SMILES notation. Activity calls are given as the source filed them. No cut-off for these calls is given here. Some results are limits rather than exact numbers.

Chain of Protease (Q9YQ12 whole entry): as the sequence (Q9YQ12 as listed by the source) above

Broadly, the IC50 is the concentration that inhibits the measured activity by half. In general, EC50 refers to the concentration at which the effect is half-maximal. For the compound `Oc1cc(O)cc(Oc2c(O)cc(O)c3c2Oc2c(cc(O)c(-c4c(O)cc5c(c4O)Oc4c(Oc6cc(O)cc(O)c6)c(O)cc(O)c4O5)c2O)O3)c1`, the IC50 at Protease was 81500 nM. The compound further showed a concentration for a half-maximal effect (EC50) in series [1] of 510 nM.

As to `Cc1cn([C@H]2C[C@H](N=[N+]=[N-])[C@@H](CO)O2)c(=O)[nH]c1=O`, the outcome in series [2] was Active.

By inhibition is commonly meant the percentage by which the read-out fell short of the control. A word on the CC50: it is the concentration at which the toxic effect on the cells reaches its halfway point. As for `Oc1cc(O)cc(Oc2c(O)cc(O)c3c2Oc2c(O)cc(O)c(-c4c(O)cc(O)c5c4Oc4c(O)cc(O)c(Oc6cc(O)cc(O)c6)c4O5)c2O3)c1`, the EC50 worked out at 1230 nM in series [3], 1260 nM in [5], 1070 nM in [1] and 1720 nM in series [15]. In addition, the Activity in series [4] was above 96%; in series [10], 80%; in series [16], 88%; in series [17], “Dose-dependent effect”; in the series on CEM-SS, “Non-toxic”. Moreover, the figures for the inhibition in series [6] and in series [7] were 50.5% and 96.3%, respectively. Further, the outcome in [8], in [9], in series [12], in [13] and in series [20] was Active. Further, the result in [11] was inactive. For the same compound, half-maximal cytotoxicity in series [14] (CC50 at 72 h) was put at 484000 nM. Besides, the selectivity ratio in series [18] was 393. Moreover, the inhibition at 10 µM in [19] is 90%.

Values taken from ChEMBL document CHEMBL1139406, “Anti-HIV-1 activity of phloroglucinol derivative, 6,6'-bieckol, from Ecklonia cava” (Bioorg Med Chem, 2008).
